Assay results as given in US20130041005A1, “PHARMACEUTICAL COMPOSITIONS COMPRISING NEUROPILIN INHIBITORS, AND THEIR USE FOR THE PREVENTION AND/OR TREATMENT OF ANGIOGENIC DISORDERS AND CANCERS” (TRAGEX PHARMA, priority 2011, published 2013).

Assays:
Assay type in all cases: cell-based
HUVEC cells = assay: WST-1 proliferation assay, HUVEC; details: for cytotoxicity for endothelial cell lines (HUVEC cells) in culture: FIG. 1 cell survival; for IC50: Homo sapiens, HUVEC, 72 h, read-out: Anti-proliferative activity on HUVEC cells (IC50)
Protocol: (§1) Cells were grown as subconfluent monolayer and cultured in 75 cm^2 flasks at 37° C., 5% CO2 in a humidified atmosphere, and medium was changed every two days. Only cells from passages 2-6 were used for the experiments.
All cells were detached with 3 ml of trypsin/EDTA (chelator of calcium and magnesium ions) (Lonza), incubated for 5 min at 37° C., and examined using a microscope to ensure that the cells were detached and floating. […] The supernatant was removed and the cell pellet resuspended in […] of culture medium. 50 μl of this solution were transferred in 20 μl of isotonic solution and the cells were counted by count cellular (Beckman Coulter).
(§2) The cell proliferation WST-1 assay is a colorimetric assay for the quantification of cell proliferation and viability, based on the enzymatic cleavage of the tetrazolium salt WST-1 added to the culture medium, to a water soluble colored formazan dye, detected by absorbance at 450 nm, by mitochondrial succinate-tetrazolium reductase in viable cells. An augmentation in enzyme activity will then lead to an increase in the amount of formazan dye formed, which directly correlates to the number of metabolically active cells in the culture.
After an incubation period of 72 h, at day 4, were prepared the […] medium with reagent WST-1 […] ([…]). The medium was removed from the 96 microplate and 200 μl of solution WST-1/medium were added for each well. The cells were incubated at 37° C. in a humidified atmosphere of 5% CO2 for 1 h 30 and the absorbance at 450-655 nm was measured by Microplate Manager 5.2 (Bio-Rad).

HT-1080 = assay: WST-1 proliferation assay, HT-1080; details: Homo sapiens; Fibrosarcoma HT-1080; read-out: Anti-proliferative activity IC50 (μM) ± SD
Protocol: (§3) All the cancer cell lines were maintained in cultured in DMEM GlutaMAX™ (GIBCO Invitrogen, France, cat no 31966047) enhanced with 10% foetal bovine serum (GIBCO Invitrogen, France, cat no 10270-106) and 1% penicillin G/streptomycin (GIBCO Invitrogen, France, cat no 15140-122). Only Panc-10.5 cells were cultivated in RPMI 1640 medium (Gibco) supplemented with 2 mM L-glutamine, 1.5 g/L sodium bicarbonate, 4.5 g/L glucose, 10 mM HEPES, 1 mM sodium pyruvate, 10 Units/ml human insulin, […] (SVF): 15% (75 ml in 500 ml of medium).
(§4) Cells were grown as subconfluent monolayer and cultured in 75 cm^2 flasks at 37° C., 5% CO2 in a humidified atmosphere, and medium was changed every two days. […]
(§5) The cell proliferation WST-1 assay is a colorimetric assay for the quantification of cell proliferation and viability, based on the enzymatic cleavage of the tetrazolium salt WST-1 added to the culture medium, to a water soluble colored formazan dye, detected by absorbance at 450 nm, by mitochondrial succinate-tetrazolium reductase in viable cells. […]
(§6) After an incubation period of 72 h, at day 4, were prepared the 19 ml medium with reagent WST-1 1 ml ([…]). […] The cells were incubated at 37° C. in a humidified atmosphere of 5% CO2 for 1 h 30 and the absorbance at 450-655 nm was measured by Microplate Manager 5.2 (Bio-Rad).

PC-3 = assay: WST-1 proliferation assay, PC-3; details: Homo sapiens; PC-3, 0.05 μM
Panc-10.5 = assay: WST-1 proliferation assay, Panc-10.5; details: Homo sapiens; for inhibition at 0.1 µM: PANC - 10.5, 0.1 μM; for inhibition at 0.5 µM: PANC - 10.5, 0.5 μM; for inhibition at 1 µM: PANC - 10.5, 1 μM; for IC50: Pancreas Panc-10.5, 72 h, read-out: Anti-proliferative activity IC50 (μM) ± SD
Description: (§7) Several cancer cell lines were used: breast cancer cells (MDA-MB-231 (ATTCC® Number HTB-26™), MDA-MB-436 (ATTCC® Number HTB-130™), MDA-MB-438, BT-474 (ATTCC® Number HTB-20™)); cervical cancer cells (HeLa (ATTCC® Number CCL-2™)); colon cancer cells (HCT-116 (ATTCC® Number CCL-247™) and HT-29 (ATTCC® Number HTB-38™)); osteosarcoma cells (U2OS (ATTCC® Number HTB-96™)); pancreas cancer cells (MIA PaCa-2 (ATTCC® Number CRL-1420™) and Panc-10.5 (ATTCC® Number CRL-2547™)); prostate cancer cells (PC-3 (ATTCC® Number CRL-1435™) and LNCaP (ATTCC® Number CRL-1740™)); brain cancer cells (U87 glioblastoma (ATTCC® Number HTB-14™) and SH-SYSY neuroblastoma (ATTCC® Number CRL-2266™)).
as §3, §1
After observation of cells under the microscope, old media were removed and the adherent cells washed gently twice with PBS (Phosphate Buffer Saline, —Ca^2+, —Mg^2+, Lonza cat no: 17-512F/12). All cells were detached with 3 ml of trypsin/EDTA (chelator of calcium and magnesium ions) (Lonza), incubated for 5 min at 37° C., and examined using a microscope to ensure that the cells were detached and floating. Then, 3 ml TNS (Trypsin Neutralizing Solution, Lonza, France, cat no CC-5002) or of culture medium were added to inactivate the trypsin, and the cell suspension was transferred in a falcon and centrifuged for 7 min at 1400 rpm. The supernatant was removed and the cell pellet resuspended in […] of culture medium. 50 μl of this solution were transferred in 20 μl of isotonic solution and the cells were counted by count cellular (Beckman Coulter). At day 0, 200 μl of cellular suspension (3.10^3 cells/well for the HUVEC cells, breast cancer cells (MDA-MB-231 1.10^4 cells/well, MDA-MB-436 1.10^4 cells/well, MDA-MB-438 2.10^4 cells/well, BT-474 2.5.10^4 cells/well); cervical cancer cells (HeLa 5.000 cells/well); colon cancer cells (HCT-116 5.10^3 cells/well, HCT-29 1.1.10^4 cells/well); osteosarcoma cells (U2OS 8.10^3 cells/well); pancreas cancer cells (MIA PaCa-2 5.10^3 cells/well, Panc-10.5 1.5.10^4 cells/well); prostate cancer cells (PC-3 4.10^3 cells/well, LNCaP 2.10^4 cells/well); brain cancer cells (U87 5.10^3 cells/well, SH-SYSY 8.10^4 cells/well)) were then plated on 96 well plates and incubated at 37° C. in a humidified atmosphere of 5% CO2 for 24 h.
At day 1, the compounds 1 or 2 of the invention were added at increasing concentrations (0.1-10 μM) in the wells and plates were incubated at 37° C. in a humidified atmosphere of 5% CO2 for 72 h.
as §2
After an incubation period of 72 h, at day 4, were prepared the 19 ml medium with reagent WST-1 1 ml ([…]). The medium was removed from the 96 microplate and 200 μl of solution WST-1/medium were added for each well. […]

LNCaP = assay: WST-1 proliferation assay, LNCaP; details: Homo sapiens; Prostate LNCaP, 72 h; read-out: Anti-proliferative activity IC50 (μM) ± SD
Description: as §7, with “CRL-2266™)). […]” for “CRL-2266™)).”
After observation of cells under the microscope, old media were removed and the adherent cells washed gently twice with PBS (Phosphate Buffer Saline, —Ca^2+, —Mg^2+, Lonza cat no: 17-512F/12). […] 50 μl of this solution were transferred in 20 μl of isotonic solution and the cells were counted by count cellular (Beckman Coulter). […]
as §5

DAUDI = assay: WST-1 proliferation assay, DAUDI; details: Homo sapiens; Burkitt's lymphoma DAUDI; read-out: Anti-proliferative activity IC50 (μM) ± SD
Protocol: as §3, §4, §5, §6

HCT-116 = assay: WST-1 proliferation assay, HCT-116; details: Homo sapiens; HCT-116, 0.05 μM
GRANTA-519 = assay: WST-1 proliferation assay, GRANTA-519; details: Homo sapiens; Mantle cell lymphoma GRANTA-519; read-out: Anti-proliferative activity IC50 (μM) ± SD
Protocol: as §3, §4, §5, §6

Compound	cytotoxicity for endothelial cell lines (HUVEC cells) in culture (HUVEC cells)	IC50 (HUVEC cells) [µM]	IC50 (HT-1080) [µM]	inhibition at 0.05 µM (PC-3) [%]	inhibition at 0.1 µM (Panc-10.5) [%]	inhibition at 0.5 µM (Panc-10.5) [%]	inhibition at 1 µM (Panc-10.5) [%]	IC50 (Panc-10.5) [µM]	IC50 (LNCaP) [µM]	IC50 (DAUDI) [µM]	inhibition at 0.05 µM (HCT-116) [%]	IC50 (GRANTA-519) [µM]
Cc1ccc(-c2nc3ccccc3[nH]2)cc1NC(=S)NC(=O)c1ccc2c(c1)OCCO2 [Compound 1, N-[5-(1H-benzimidazol-2-yl)-2-methylphenyl]-N′-(2,3-dihydro-1,4-benzodioxin-6-ylcarbonyl)thiourea]	cytotoxic	0.2 ± 0.01	0.3 ± 0.23	0	21	44	56	1	1.4 ± 0.13	1	0	1
O=C(NC(=S)Nc1cccc(-c2nc3ccccc3[nH]2)c1)c1ccc2c(c1)OCCO2 [Compound 2, N-[3-(1H-benzimidazol-2-yl)phenyl]-N′-(2,3-dihydro-1,4-benzodioxin-6-ylcarbonyl)thiourea]	cytotoxic	0.05 ± 0.01	0.07 ± 0.03	0	51	62	65	0.1 ± 0.09	1.3 ± 0.15	0.5 ± 0.02	25	0.5 ± 0.02
